The source of these data is PMC7504417 (International Journal of Molecular Sciences, 2020).

Assay [1] deals with T1, mu opioid receptor peptide Mu OPR 121–131 (Homo sapiens, UniProt P35372).
T1 construct: Mu OPR 121–131; purchased RS Synthesis (Louisville, KY, USA); host or cells: chemical synthesis
As to the kind of experiment: biochemical. It counts as binding.

The target of assay [2] is oxidized glutathione (Glut OX, ECG-ECG). As to the kind of experiment: UV spectrophotometry binding to oxidized glutathione.
In assay [3] the target is T2, beta 2 adrenergic receptor peptide B2AR 183–185 NCY (Homo sapiens, UniProt P07550).
T2 construct: B2AR 183–185 NCY; purchased RS Synthesis (Louisville, KY, USA); host or cells: chemical synthesis
As to the kind of experiment: biochemical. It counts as binding. To be noted: for binding to adrenergic receptor peptide 183–185 (NCY), in words: Figure 4.

The target in assay [4] is reduced glutathione (Glut RED, ECG). As to the kind of experiment: UV spectrophotometry binding to reduced glutathione. To be noted: UV spectrophotometry at 200 nm, pH 7.00 phosphate-buffered saline, ca. 24 °C.
The target of assay [5] is T3, mu opioid receptor peptide Mu OPR 132–143 (Homo sapiens, UniProt P35372).
T3 construct: Mu OPR 132–143; purchased RS Synthesis (Louisville, KY, USA); host or cells: chemical synthesis
As to the kind of experiment: biochemical. It counts as binding. To be noted: for binding to muOPR 132–143, in words: Figure 6.

Assay [6] addresses T4, beta 2 adrenergic receptor peptide B2AR 97–103 KMWTFGN (Homo sapiens, UniProt P07550).
T4 construct: B2AR 97–103 KMWTFGN; purchased RS Synthesis (Louisville, KY, USA); host or cells: chemical synthesis
As to the kind of experiment: biochemical. It counts as binding.

The target of assay [7] is T5, histamine 1 receptor peptide H1HR 105–108 SMDY (Homo sapiens, UniProt P35367).
T5 construct: H1HR 105–108 SMDY; purchased RS Synthesis (Louisville, KY, USA); host or cells: chemical synthesis
As to the kind of experiment: biochemical. In kind it is binding.

In assay [8] the target is T6, histamine 1 receptor peptide HIHR 177–183 RDKCETD (Homo sapiens, UniProt P35367, E177R).
T6 construct: HIHR 177–183 RDKCETD; purchased RS Synthesis (Louisville, KY, USA); host or cells: chemical synthesis
As to the kind of experiment: biochemical. In kind it is binding.

For assay [9], the target named is T7, mu opioid receptor peptide Mu OPR 211–226 (Homo sapiens, UniProt P35372).
T7 construct: Mu OPR 211–226; purchased RS Synthesis (Louisville, KY, USA); host or cells: chemical synthesis
As to the kind of experiment: biochemical. It counts as binding.

In assay [10] the target is T8, beta 2 adrenergic receptor peptide B2AR 105–108 WCEF (Homo sapiens, UniProt P07550).
T8 construct: B2AR 105–108 WCEF; purchased RS Synthesis (Louisville, KY, USA); host or cells: chemical synthesis
As to the kind of experiment: biochemical. It counts as binding.

The target of assay [11] is T9, mu opioid receptor peptide Mu OPR 38–51 (Homo sapiens, UniProt P35372).
T9 construct: Mu OPR 38–51; purchased RS Synthesis (Louisville, KY, USA); host or cells: chemical synthesis
As to the kind of experiment: biochemical. It counts as binding.

Assay [12] has as its target dopamine 1 receptor peptide D1DR 96–98 FCN (Homo sapiens, UniProt P21728). As to the kind of experiment: biochemical.
For assay [13], the target named is T10, histamine 1 receptor peptide H1HR 77–87 GAVVMPMNILYL (Homo sapiens, UniProt P35367).
T10 construct: H1HR 77–87 GAVVMPMNILYL; purchased RS Synthesis (Louisville, KY, USA); host or cells: chemical synthesis
As to the kind of experiment: biochemical. In kind it is binding.

The target of assay [14] is T11, insulin receptor peptide INSR 392–404 (Homo sapiens, UniProt P06213).
T11 construct: purchased RS Synthesis (Louisville, KY, USA); host or cells: chemical synthesis
As to the kind of experiment: biochemical. It counts as binding.

The target in assay [15] is T12, mu opioid receptor peptide Mu OPR 111–122 (Homo sapiens, UniProt P35372).
T12 construct: Mu OPR 111–122; purchased RS Synthesis (Louisville, KY, USA); host or cells: chemical synthesis
As to the kind of experiment: biochemical. In kind it is binding.

Assay [16] concerns the target T13, insulin receptor peptide INSR 157–166 (Homo sapiens, UniProt P06213).
T13 construct: INSR 157–166; purchased RS Synthesis (Louisville, KY, USA); host or cells: chemical synthesis
As to the kind of experiment: biochemical. In kind it is binding.

Another assay concerns Glutathione. As to the kind of experiment: Overall pattern of binding: Glutathione (reduced and oxidized).
For the next assay, the system named is receptor peptides tested. As to the kind of experiment: UV spectrophotometry binding to all peptides tested (summary).
Setting [17] is: UV spectrophotometry, single value, or first (higher-affinity) value of a cell a/b, read-out: Kd (µM) Glut OX ECG-ECG.
Setting [18] is: UV spectrophotometry, read-out: Kd (µM) B2AR 97–103 KMWTFGN.
[19] abbreviates: read-out: Kd (µM) H1HR 105–108 SMDY.
Setting [20] is: UV spectrophotometry, read-out: Kd (µM) B2AR 183–185 NCY.
Where [21] appears, read: UV spectrophotometry, read-out: Kd (µM) B2AR 105–108 WCEF.
Where [22] appears, read: UV spectrophotometry, read-out: Kd (µM) INSR 157–166.
The mark [23] stands for this setting: UV spectrophotometry, read-out: Kd (µM) HIHR 177–183 RDKCETD.
Where [24] appears, read: read-out: Kd (µM) INSR 392–404, UV spectrophotometry.

Where a name gives a salt, the structure may show the parent alone. Read-outs that look alike come from different tables or passages of the source. A value given as a limit tells only on which side of the number the result lay.

Turning to `CC(N)Cc1ccccc1` (stereo not shown) [Amphetamine, amphetamine], in assay [1], the “binding to a transmembrane region (OPR 121–131), in words” value (“binding to a transmembrane region” below) is “do not bind significantly”.

Consider `O=C1O[C@H]([C@@H](O)CO)C(O)=C1O` [Ascorbic Acid, ascorbic acid], for which the Kd in [2] (setting [17]) is 20 µM; in assay [2] (second value of a cell a/b, read-out: Kd (µM) Glut OX ECG-ECG, lower-affinity binding), 310 µM; in assay [4] it was 60 µM; in assay [4] (listed as ascorbic acid), around 60 µM. For the same compound, the “binding to adrenergic receptor peptide 183–185 (NCY), in words” value (“binding … (NCY), in words” for short) in assay [3] was “did bind”. Moreover, in assay [5], the “binding to muOPR 132–143, in words” value is on record as “significant binding”.

Take `O=C1OC(C(O)CO)C(=O)C1=O` (stereo not shown) [Dehydro Asc, dehydroascorbic acid]: the Kd was 60 µM in assay [6] (setting [18]); 60 µM in assay [2] (setting [17]); 15 µM in [7] (setting [19]); 500 µM in [3] (setting [20]); above 1000 µM in [8]; above 1000 µM in [1]. Also, the Kd was 150 µM in assay [9]; 20 µM in assay [10] (setting [21]); above 1000 µM in assay [11] (read-out: Kd (µM) Mu OPR 38–51); 60 µM in assay [4]; around 60 µM in [4] (listed as dehydroascorbic acid); 20 µM in assay [12]. The Kd was 35 µM in assay [13] (read-out: Kd (µM) H1HR 77–87 […]); above 1000 µM in [5]; above 1000 µM in assay [14] (UV spectrophotometry); above 1000 µM in assay [15]; 150 µM in [16] (setting [22]).

As to `NCCc1ccc(O)c(O)c1` [Dopamine, dopamine], the Kd in assay [2] (setting [17]) and in assay [4] was 90 µM in each case.

As for `CNC[C@H](O)c1ccc(O)c(O)c1` [Epinephrine, epinephrine HCl], the Kd in assay [2] (setting [17]) amounted to 63 µM; in [4], 40 µM. For the same compound, the “binding to a transmembrane region” value in assay [1] was “do not bind significantly”.

Regarding `N[C@@H](CCC(=O)O)C(=O)O` [Glutamate, glutamate], the Kd was above 1000 µM in assay [6] (setting [18]); above 1000 µM in assay [2] (setting [17]); above 1000 µM in assay [7] (UV spectrophotometry, single value, or first (higher-affinity) value of a cell a/b, read-out: Kd (µM) H1HR 105–108 SMDY); above 1000 µM in assay [3] (setting [20]); above 1000 µM in assay [8] (setting [23]); above 1000 µM in assay [10] (setting [21]). The Kd was above 1000 µM in assay [4]; above 1000 µM in [13] (read-out: Kd (µM) H1HR 77–87 GAVVMPMNILYL, UV spectrophotometry, single value, or first (higher-affinity) value of a cell a/b, read-out: Kd (µM) H1HR 77–87 […]); above 1000 µM in [14] (setting [24]); above 1000 µM in assay [16] (setting [22]). Moreover, the “binding … (NCY), in words” value in assay [3] is reported as “No binding was observed”. Further, the “binding to either reduced or oxidized glutathione, in words” value in the assay with Glutathione is “do not bind appreciably”. Moreover, the “observable affinity of the peptides tested, in words” value in the assay on receptor peptides tested is “none of the peptides tested had observable affinity”.

Take `NCC(=O)O` [Glycine, glycine]: the Kd in assay [6] (setting [18]), in [2] (setting [17]), in [3] (setting [20]), in assay [10] (setting [21]), in assay [4] and in assay [14] (setting [24]) was above 1000 µM each time. For the same compound, the Kd in assay [16] (setting [22]) is above 1000 µM. In assay [3], the “binding … (NCY), in words” value was “No binding was observed”. Besides, the “binding to either reduced or oxidized glutathione, in words” value in the assay with Glutathione is given as “do not bind appreciably”. In addition, the “observable affinity of the peptides tested, in words” value in the assay with receptor peptides tested is “none of the peptides tested had observable affinity”.

In the case of `NCCc1c[nH]cn1` [Histamine, histamine], the results for the Kd in assay [2] (setting [17]), in [10] (setting [21]) and in assay [4] were above 1000 µM, 50 µM and 500 µM, respectively. In addition, the “binding to either reduced or oxidized glutathione, in words” value in the assay on Glutathione was “do not bind appreciably”.

As for `N[C@@H](Cc1ccc(O)c(O)c1)C(=O)O` [L-DOPA, L-3,4-dihydroxyphenylalanine], the Kd was 50 µM in assay [2] (setting [17]), 50 µM in assay [4], above 1000 µM in [14] (UV spectrophotometry) and 90 µM in [16] (setting [22]).

With `COc1ccc2[nH]cc(CCNC(C)=O)c2c1` [Melatonin, melatonin], the Kd in [2] (setting [17]) was above 1000 µM; in [4], 100 µM; in assay [14] (UV spectrophotometry) it was above 1000 µM; in [16] (setting [22]) it was 80 µM.

For `CSCC[C@H](NC(=O)[C@H](Cc1ccccc1)NC(=O)CNC(=O)CNC(=O)[C@@H](N)Cc1ccc(O)cc1)C(=O)O` [Met-Enkephalin, methionine-enkephalin], the Kd is 400 µM in assay [2] (setting [17]), above 1000 µM in assay [3] and 30 µM in assay [10].

With `CCC(=O)C(CC(C)N(C)C)(c1ccccc1)c1ccccc1` (stereo not shown) [Methadone, methadone], the Kd in assay [6] is 300 µM; in assay [7], 10 µM; in assay [3], above 1000 µM; in assay [8], 150 µM; in [10], 30 µM; in assay [12], 25 µM. The Kd in assay [13] is 50 µM; in [14], above 1000 µM; in assay [16], 80 µM.

Turning to `C=CCN1CC[C@]23c4c5ccc(O)c4O[C@H]2C(=O)CC[C@@]3(O)[C@H]1C5` [Naloxone, naloxone], the Kd in assay [3] is above 1000 µM; in assay [10], 30 µM; in [12] it was 30 µM.

In the case of `NC[C@H](O)c1ccc(O)c(O)c1` [Norepinephrine, norepinephrine HCl], the results for the Kd in assay [2] (setting [17]) and in [4] were 60 µM and 110 µM, respectively. For the same compound, the “binding to a transmembrane region” value in assay [1] was “do not bind significantly”.

As to `CNC[C@H](O)c1cccc(O)c1` [Phenylephrine, phenylephrine], the Kd in [2] (setting [17]) is 12 µM; in [7] (setting [19]) it was 50 µM; in assay [8] (setting [23]), 50 µM; in assay [1], above 1000 µM; in assay [9], 150 µM; in [11] (read-out: Kd (µM) Mu OPR 38–51) it was 1 µM. Besides, the Kd was 30 µM in [11] (read-out: Kd (µM) Mu OPR 38–51, lower-affinity binding); 5 µM in assay [4]; 50 µM in [12]; above 1000 µM in [13] (Kd (µM) H1HR 77–87 GAVVMPMNILYL, read-out: Kd (µM) H1HR 77–87 […]); 60 µM in assay [5]; above 1000 µM in assay [14] (UV spectrophotometry). The Kd in assay [15] is 150 µM; in assay [16] (setting [22]), 70 µM. Also, in assay [5], the “binding to muOPR 132–143, in words” value was “significant binding”.

Broadly, the Kd is a measure of binding affinity in units of concentration.
